Columns and labels:
[1] = tested on: 6-OHDA-lesioned juvenile rats; experiment: Locomotor activity of juvenile rats with neonatal 6-OHDA lesions (model of ADHD); assay type: in vivo, rat
Description: The behavioral effects of (1R,5S)-(+)-1-(naphthalen-2-yl)-3-azabicyclo[3.1.0]hexane were evaluated in a model of ADHD, which can be simulated in juvenile rates with neonatal 6-hydroxydopamine (6-OHDA) lesions (Davids et al., 2003). In this animal model, the NE neurons are protected from the neurotoxic effects of 6-OHDA by pretreatment with the NE transporter inhibitor desipramine, so the NE system is largely intact and can respond to NE transporter inhibitors (Davids et al., 2002). Furthermore, the 6-OHDA lesions produce learning and memory deficits in learning models including the T maze, and active and passive avoidance tasks (Shaywitz et al., 1978; Wool et al., 1987; Takasuna and Iwasaki, 1996). Performance in these learning and memory models was improved by administration of stimulants (Shaywitz et al., 1978; Wool et al., 1987). Thus, this model incorporates both hyperactivity and learning deficits found in ADHD.
Methods of lesioning neonatal rats with 6-OHDA were carried out as detailed in Zhang et al. (2001). Briefly, on postnatal day 1 (PD 1), male Sprague-Dawley rat pups were randomly assigned to a nursing dam (10/dam). On PD 5, pups receive a subcutaneous injection of 25 mg/kg desipramine hydrochloride to protect noradrenergic neurons, followed in 45 min. by randomly assigned intracisternal injection of vehicle or 6-OHDA hydrobromide (100 μg free base) under hypothermic anesthesia. Pups were returned to nursing dams immediately after the intracranial injections. Locomotor activity was monitored individually for 90 min. in the periadolescent period on PD 25, using a microcomputer controlled infrared photobeam activity monitoring system. Locomotor activity was defined as breaking of consecutive photobeams and the activity accumulated in 5 minute bins. Behavioral testing was conducted in a novel environment (transparent plastic cages containing fresh bedding) within a grid of horizontal infrared beams. Each dose of (1R,5S)-(+)-1-(naphthalen-2-yl)-3-azabicyclo[3.1.0]hexane (1, 3 and 10 mg/kg) or methylphenidate (3 mg/kg) was dissolved in saline and given i.p. immediately prior to testing. The effects of sham versus 6-OHDA lesions on dopamine neurons in rats were quantified as decrements of DA transporters labeled with [31-1]2-(3-carbomethoxy-3-β-[4′-iodophenyl]tropane ([^3H]β-CIT), a selective DA transporter radioligand (Kula et al. 1999). Sections were preincubated (60 min., room temp [RT]) in 50 mM Tris-HCl buffer (pH 7.7) containing 120 mM NaCl and 4 mM MgCl2, then in fresh buffer (60 min) containing 2 nM [3H](3-CIT. Nonspecific binding was defined with 1 μM GBR-12909. Slides were then washed (2×5 min) in ice-cold buffer, dipped in ice-cold water, and air-dried. Radiolabeled slides and calibrated [^3H]standards were exposed to [^3H]sensitive films for 10-14 d at 4° C. Tritium-sensitive Hyperfilms were developed and fixed in Kodak D-19 for 5 min. at RT. Images were quantified with a computer-controlled MCID image analyzer. Brain regions of interest were outlined and their optical density was measured with two sections representing total binding, with two samples representing nonspecific binding. Optical density of sampled regions was measured and the amount of ligand bound within each area was calculated as nCi/mg tissue. Mean values of non-specific binding in each region were subtracted from the mean total binding to determine specific binding, which was converted into fmol/mg of radioligand bound.

[2] = target: T1, recombinant human NE transporter (Homo sapiens, UniProt P23975); experiment: Inhibition of [3H]norepinephrine uptake in MDCK cells transfected with the NE uptake transporter; assay type: cell-based
T1 construct: host or cells: MDCK
Description: (§1) The ability of (1R,5S)-(+)-1-(naphthalen-2-yl)-3-azabicyclo[3.1.0]hexane for inhibiting transport of norepinephrine (NE) and/or dopamine (DA) and/or serotonin (5-HT) was evaluated using cell lines (such as the HEK 293 cell line) that stably express recombinant human NE, DA, and 5-HT transporters, respectively. Techniques for stably transfecting mammalian cell lines with neurotransmitter transporters and measuring the effects of drugs on amine uptake have been described in the literature (e.g., Eshleman A J, J Pharmacol Exp Ther 289:877-885, 1999) and are well known to those skilled in the art
(§2) Monoamine uptake was determined in MDCK, CHO-K1, and HEK-293 cell lines respectively transfected with NE, DA, and 5-HT uptake transporters by MDS Pharma Services (Taipei, Taiwan 112, R. O. C.). The cells were incubated in 5 mM Tris-HCl, and 7.5 mM HEPES buffer, pH 7.1, containing 120 mM NaCl, 5.4 mM KCl, 1.2 mM CaCl2, 1.2 mM MgSO4, 5 mM D-glucose, and 1 mM Ascorbic Acid. The cellular homogenates were incubated with radioligands and various concentrations of drugs for 10 minutes at 25° C. The [^3H]-radioligands incorporated into the cells were determined according to published methods using liquid scintillation counting (Perovic and Müller 1995; Eshleman et al., 1999). […]

rats = experiment: Forced swim test in rats; assay type: in vivo, rat; settings: 40 mg/kg p.o., data not shown
[3] = target: T2, recombinant human DA transporter (Homo sapiens, UniProt Q01959); experiment: Inhibition of [3H]dopamine uptake in CHO-K1 cells transfected with the DA uptake transporter; assay type: cell-based
T2 construct: host or cells: CHO-K1
Description: as §1, §2

T2 sequence (Q01959 whole entry): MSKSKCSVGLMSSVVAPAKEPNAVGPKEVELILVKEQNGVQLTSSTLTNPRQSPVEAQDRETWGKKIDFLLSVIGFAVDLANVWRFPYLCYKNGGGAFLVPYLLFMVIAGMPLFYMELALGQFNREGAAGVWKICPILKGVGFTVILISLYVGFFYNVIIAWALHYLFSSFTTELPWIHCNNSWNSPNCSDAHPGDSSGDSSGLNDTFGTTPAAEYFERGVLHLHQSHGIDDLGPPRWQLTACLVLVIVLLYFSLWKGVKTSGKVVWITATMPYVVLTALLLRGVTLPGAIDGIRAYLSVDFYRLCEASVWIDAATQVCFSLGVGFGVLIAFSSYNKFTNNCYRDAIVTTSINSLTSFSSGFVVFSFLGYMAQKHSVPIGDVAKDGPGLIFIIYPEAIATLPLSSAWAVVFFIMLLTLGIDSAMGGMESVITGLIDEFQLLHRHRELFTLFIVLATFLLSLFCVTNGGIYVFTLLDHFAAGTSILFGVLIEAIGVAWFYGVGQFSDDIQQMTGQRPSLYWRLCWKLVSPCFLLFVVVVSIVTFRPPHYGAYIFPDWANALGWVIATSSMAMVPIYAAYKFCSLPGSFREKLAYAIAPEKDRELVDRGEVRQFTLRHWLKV
T1 sequence (P23975 whole entry): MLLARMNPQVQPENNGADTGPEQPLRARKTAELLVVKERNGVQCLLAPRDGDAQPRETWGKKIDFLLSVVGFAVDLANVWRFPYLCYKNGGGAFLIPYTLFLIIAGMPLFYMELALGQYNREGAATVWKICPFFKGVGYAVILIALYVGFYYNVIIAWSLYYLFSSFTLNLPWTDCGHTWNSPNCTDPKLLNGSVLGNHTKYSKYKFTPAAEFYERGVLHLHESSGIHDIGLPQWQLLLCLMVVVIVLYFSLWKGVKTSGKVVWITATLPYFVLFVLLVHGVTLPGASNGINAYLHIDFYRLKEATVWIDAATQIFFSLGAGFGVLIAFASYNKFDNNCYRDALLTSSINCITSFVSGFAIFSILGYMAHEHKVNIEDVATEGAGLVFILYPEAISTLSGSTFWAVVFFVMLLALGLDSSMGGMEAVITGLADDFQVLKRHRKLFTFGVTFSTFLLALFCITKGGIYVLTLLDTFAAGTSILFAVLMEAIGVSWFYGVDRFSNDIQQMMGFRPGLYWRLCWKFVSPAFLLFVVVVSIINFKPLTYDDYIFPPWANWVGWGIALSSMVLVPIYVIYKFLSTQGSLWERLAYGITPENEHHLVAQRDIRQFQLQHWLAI

SMILES: c1ccc2cc([C@]34CNC[C@H]3C4)ccc2c1 [(1R,5S)-(+)-1-(naphthalen-2-yl)-3-azabicyclo[3.1.0]hexane]
- time over which locomotor activity was significantly reduced ([1]; 1 mg/kg i.p., PD 25, 90 min test, vs saline): 35 min
- time over which locomotor hyperactivity was significantly attenuated ([1]; 3 mg/kg i.p., PD 25, 90 min test): 45 min
- time over which locomotor activity was significantly reduced ([1]; 10 mg/kg i.p., PD 25, 90 min test): 90 min
- effect on locomotor hyperactivity ([1]; 1, 3 and 10 mg/kg i.p.): dose-dependently inhibited the locomotor hyperactivity
- locomotor activity (FIGS. 7A and 7B) ([1]; 6-OHDA-lesioned juvenile rats at PD25, p<0.05 versus vehicle): reduced locomotor activity
- IC50 [2]: 6 nM
- immobility in the forced swim test (rats): reduced immobility
- IC50 [3]: 38 nM
